Our source for the MIC values is US11261201B2 (priority 2018, dated 2022).

One experiment has as its system H37RvMA. Put plainly: Tuberculosis Alamar Blue/Resazurin assay (MIC). Type of experiment: cell-based. The conditions noted are these: Mycobacterium tuberculosis, H37RV, read-out: WT H37Rv MTB Activity.
In another experiment the test system is E. coli. Put plainly: Gram negative MIC protocol (OD600, LB, 24 h). The conditions noted are these: Escherichia coli.
The next experiment relates to A. baumannii. Put plainly: Gram negative MIC protocol (OD600, LB, 24 h). The conditions noted are these: Acinetobacter baumannii.
Where [1] appears, read: read-out: MIC E. coli delta-TolC LB Media, E. coli delta-TolC strain, LB media, 24 h, OD600.
Setting [2] is: read-out: MIC WT E. coli LB Media, wild-type E. coli, LB media, 24 h, OD600.
Setting [3] is: read-out: MIC A. baumannii LB Media, A. baumannii, LB media, 24 h, OD600.
[4] abbreviates: read-out: MIC E. coli delta-TolC LB Media, E. coli delta-TolC, LB media, OD600.
[5] abbreviates: read-out: MIC WT E. coli LB Media, WT E. coli, LB media, OD600.
[6] abbreviates: read-out: MIC A. baumannii LB Media.

The structures appear in SMILES notation. Values after ≈ are worked out from the molar mass of the structure shown. Structures can show the parent of a compound that is named as a salt. Where two headings read alike, the source gives them in different places.

Description for A. baumannii: (§1) Overnight bacterial cultures were grown in LB with no added antibiotics at 37° C. with shaking. A 1:1000 dilution of these cultures into LB was exposed to concentration gradients of compounds in 96-well plates (100 μL per well assay volume). Resulting plates were incubated at 37° C. for 24 h without shaking, and OD600 was measured at the end of the incubation. MICs were determined as the lowest concentrations at which OD600 remained at baseline.
Description for E. coli: as §1

As for `COc1ccc2cccc(CCNCc3ccccc3)c2c1` [B199], the MIC with H37RvMA (WT H37Rv MTB) is 150 µM (≈ 43.7 µg/mL); with E. coli (setting [1]) it was 170 µM (≈ 49.5 µg/mL); in the experiment on E. coli (setting [2]), above 300 µM; in the experiment on A. baumannii (setting [3]) it was 170 µM (≈ 49.5 µg/mL).
In the case of `c1ccc(CNC2(C3CC3)CC2)cc1` [B32], the MIC in the experiment on H37RvMA (WT H37Rv MTB), in the experiment with E. coli (setting [4]), in the experiment on E. coli (setting [5]) and with A. baumannii (setting [3]) was above 150 µM each time.
On to `CN1CC2CCC1C(CNCc1ccccc1)C2` (stereo not drawn) [B116], for which the MIC in the experiment with H37RvMA, with E. coli (setting [4]), in the experiment on E. coli (setting [5]) and with A. baumannii (setting [3]) was above 150 µM in each case.
As for `C[C@H](CC1CCCCC1)NCc1ccccc1` [B95], the MIC with H37RvMA is 55 µM (≈ 12.7 µg/mL); in the experiment on E. coli (setting [4]) it was above 150 µM; in the experiment on E. coli (setting [5]), above 150 µM; in the experiment on A. baumannii (setting [6]), above 150 µM.
For `C1=C(CCNCc2cccnc2)CCCC1` [B4], the MIC in the experiment with H37RvMA, in the experiment with E. coli (setting [4]), in the experiment with E. coli (setting [5]) and with A. baumannii (setting [3]) was above 150 µM in each case.
Consider `O=C1Cc2ccccc2CN1CCC1CCOCC1` [B430, 2-(2-(tetrahydro-2H-pyran-4-yl)ethyl)-1,4-dihydroisoquinolin-3(2H)-one], for which the MIC in the experiment with H37RvMA (WT H37Rv MTB) was 55.1 µM (≈ 14.3 µg/mL); with E. coli (setting [4]), above 150 µM; in the experiment with E. coli (setting [5]), above 150 µM; with A. baumannii (setting [3]), above 150 µM.
Consider `COc1cccc(CNCCC2CCCCC2)c1` [B353], for which the MIC in the experiment on H37RvMA (WT H37Rv MTB), in the experiment with E. coli (setting [1]), with E. coli (setting [2]) and in the experiment on A. baumannii (setting [3]) was above 150 µM in each case.
Turning to `c1ccc(CNCCN2CCc3sccc3C2)cc1` [B140], the MIC in the experiment with H37RvMA (WT H37Rv MTB), in the experiment with E. coli (setting [4]), in the experiment on E. coli (setting [5]) and in the experiment on A. baumannii (setting [3]) was above 150 µM each time.
Take `c1ccc(CNCC2CCC2)cc1` [B135]: the MIC with H37RvMA (WT H37Rv MTB), in the experiment with E. coli (setting [4]), in the experiment with E. coli (setting [5]) and in the experiment on A. baumannii (setting [3]) was above 150 µM in each case.
In the case of `c1ccc2c(c1)CCN(CCC1CCCCC1)C2` [B417, 2-(2-cyclohexylethyl)-1,2,3,4-tetrahydroisoquinoline], the MIC in the experiment on H37RvMA, in the experiment with E. coli (setting [4]), in the experiment with E. coli (setting [5]) and in the experiment with A. baumannii (setting [6]) was above 150 µM throughout.
In the case of `c1ccc(-c2ccccc2CNCCC2CCCCC2)cc1` [B229, N-(biphenyl-2-ylmethyl)-2-cyclohexylethanamine hydrochloride], the MIC turned out to be 33 µM in the experiment on H37RvMA (WT H37Rv MTB), 7 µM in the experiment with E. coli (setting [1]), 170 µM in the experiment with E. coli (setting [2]) and 96 µM in the experiment on A. baumannii (setting [3]).
The corresponding values for `CC(CC1CCCCC1)NCc1ccccc1OCC1CC2CCC1C2` (stereo not drawn) [B386, N-(2-(bicyclo[2.2.1]heptan-2-ylmethoxy)benzyl)-1-cyclohexylpropan-2-amine] are 20.2 µM (≈ 7.18 µg/mL), 5 µM (≈ 1.78 µg/mL), above 150 µM and 55 µM (≈ 19.6 µg/mL).
The corresponding values for `CC(CC1CCCCC1)NCc1ccccc1OCc1cc(Br)no1` (stereo not drawn) [B302] are 55 µM (≈ 22.4 µg/mL), below 1 µM, 150 µM (≈ 61.1 µg/mL) and 150 µM (≈ 61.1 µg/mL).
In the same order, the values of `CC(CC1CCCCC1)NCc1ccccc1OCC(=O)N(C)C1CCCCC1` (stereo not drawn) [B263] are 91 µM (≈ 36.5 µg/mL), 3 µM (≈ 1.2 µg/mL), above 150 µM and above 150 µM.
As for `c1ccc(CNCC2C3CC4CC(C3)CC2C4)cc1` (stereo not drawn) [B59], the MIC with H37RvMA (WT H37Rv MTB) is 33 µM (≈ 8.43 µg/mL); in the experiment on E. coli (setting [4]), above 150 µM; in the experiment on E. coli (setting [5]), above 150 µM; in the experiment on A. baumannii (setting [3]), above 150 µM.
Take `CC(CC1CCCCC1)NCc1ccccc1CCC(N)=O` (stereo not drawn) [B399, 3-(2-((1-cyclohexylpropan-2-ylamino)methyl)phenyl)propanamide trifluoroacetate]: the MIC was above 150 µM with H37RvMA, 20 µM in the experiment on E. coli (setting [4]), 150 µM in the experiment on E. coli (setting [5]) and above 150 µM in the experiment with A. baumannii (setting [6]).
Consider `O=C1Cc2ccccc2CN1CCCC1CCCCC1` [B416, 2-(3-cyclohexylpropyl)-1,4-dihydroisoquinolin-3(2H)-one], for which the MIC with H37RvMA (WT H37Rv MTB) was 2.5 µM (≈ 0.679 µg/mL); with E. coli (setting [4]), 55 µM (≈ 14.9 µg/mL); in the experiment on E. coli (setting [5]), above 150 µM; with A. baumannii (setting [3]), above 150 µM.
As to `c1ccc(CNCCN2CCC3(CCCCC3)CC2)cc1` [B121], the MIC in the experiment on H37RvMA (WT H37Rv MTB), with E. coli (setting [4]), in the experiment with E. coli (setting [5]) and with A. baumannii (setting [3]) was above 150 µM in each case.
As to `COc1cccc2c1B(O)OC2CNCc1ccccc1` (stereo not drawn) [B220, 3-((benzylamino)methyl)-7-methoxybenzo[c][1,2]oxaborol-1(3H)-ol hydrochloride], the MIC in the experiment with H37RvMA (WT H37Rv MTB) was above 150 µM; in the experiment on E. coli (setting [1]) it was above 300 µM; in the experiment on E. coli (setting [2]), above 300 µM; with A. baumannii (setting [3]), above 300 µM.
In the case of `c1ccc(CNC2(Cc3ccccc3)CC2)cc1` [B49], the MIC in the experiment on H37RvMA (WT H37Rv MTB), in the experiment with E. coli (setting [4]), with E. coli (setting [5]) and in the experiment with A. baumannii (setting [3]) was above 150 µM each time.
In the case of `CC(CC1CC=CCC1)NCc1ccccc1` (stereo not drawn) [B157, N-benzyl-1-(cyclohex-3-enyl)propan-2-amine], the MIC with H37RvMA was determined as 91 µM (≈ 20.9 µg/mL); in the experiment with E. coli (setting [4]), 11 µM (≈ 2.52 µg/mL); in the experiment on E. coli (setting [5]) it was 20 µM (≈ 4.59 µg/mL); in the experiment with A. baumannii (setting [6]), 55 µM (≈ 12.6 µg/mL).
As to `CC(CC1CCCCC1)NCc1ccccc1OC1C2CC3CC(C2)CC1C3` [B404, N-(2-(((1R,3S,5r,7r)-adamantan-2-yl)oxy)benzyl)-1-cyclohexylpropan-2-amine], the MIC with H37RvMA (WT H37Rv MTB) is 20.2 µM (≈ 7.71 µg/mL); in the experiment on E. coli (setting [4]), 7 µM (≈ 2.67 µg/mL); with E. coli (setting [5]), above 150 µM; in the experiment on A. baumannii (setting [3]), 150 µM (≈ 57.2 µg/mL).
The corresponding values for `CC1(C)[C@@H]2C[C@](C)(CNCc3ccccc3)C[C@@H]21` [B88] are above 150 µM, above 150 µM, above 150 µM and above 150 µM.
Turning to `Cc1nc(COc2ccccc2CNC(C)CC2CCCCC2)no1` (stereo not drawn) [B334], the MIC is above 150 µM with H37RvMA (WT H37Rv MTB), 7 µM (≈ 2.4 µg/mL) in the experiment with E. coli (setting [1]), above 150 µM with E. coli (setting [2]) and above 150 µM with A. baumannii (setting [3]).
For the compound `CC(CC1CCCCC1)NCc1ccccc1CS(=O)(=O)N[C@H](C)C(=O)O` (stereo partly drawn) [B455, ((2-(((1-cyclohexylpropan-2-yl)amino)methyl)benzyl)sulfonyl)-D-alanine], the MIC was above 150 µM in the experiment with H37RvMA (WT H37Rv MTB), 91 µM (≈ 36.1 µg/mL) in the experiment on E. coli (setting [4]), above 150 µM in the experiment with E. coli (setting [5]) and above 150 µM in the experiment with A. baumannii (setting [3]).
Consider `c1cc(CNCCC2CCCCC2)c2cc[nH]c2c1` [B357], for which the MIC with H37RvMA (WT H37Rv MTB) amounted to 91 µM (≈ 23.3 µg/mL); with E. coli (setting [1]) it was 20 µM (≈ 5.13 µg/mL); in the experiment with E. coli (setting [2]), 150 µM (≈ 38.5 µg/mL); in the experiment on A. baumannii (setting [3]), 91 µM (≈ 23.3 µg/mL).
Take `C[C@@H](NCc1ccccc1)C12CC3CC(CC(C3)C1)C2` [B196]: the MIC in the experiment with H37RvMA (WT H37Rv MTB) is 55 µM (≈ 14.8 µg/mL); in the experiment with E. coli (setting [4]), 300 µM (≈ 80.8 µg/mL); with E. coli (setting [5]), above 300 µM; in the experiment with A. baumannii (setting [3]) it was above 300 µM.
In the case of `c1ccc(CNCC2CC3CCC2CC3)cc1` (stereo not drawn) [B123], the MIC with H37RvMA (WT H37Rv MTB) was 150 µM (≈ 34.4 µg/mL); in the experiment on E. coli (setting [4]) it was above 150 µM; in the experiment with E. coli (setting [5]), above 150 µM; with A. baumannii (setting [3]), above 150 µM.
`CC(CC1CCCCC1)NCc1ccccc1OCc1ccccc1Br` (stereo not drawn) [B381]: the MIC in the experiment on H37RvMA (WT H37Rv MTB) came out at 20.2 µM (≈ 8.41 µg/mL); with E. coli (setting [1]), 4 µM (≈ 1.67 µg/mL); in the experiment with E. coli (setting [2]), 55 µM (≈ 22.9 µg/mL); with A. baumannii (setting [3]), 55 µM (≈ 22.9 µg/mL).
For `COCCNS(=O)(=O)Cc1ccccc1CNC(C)CC1CCCCC1` (stereo not drawn) [B434, 1-(2-(((1-cyclohexylpropan-2-yl)amino)methyl)phenyl)-N-(2-methoxyethyl) methanesulfonamide], the MIC is above 150 µM in the experiment with H37RvMA (WT H37Rv MTB), 4 µM (≈ 1.53 µg/mL) in the experiment with E. coli (setting [4]), 150 µM (≈ 57.4 µg/mL) in the experiment on E. coli (setting [5]) and 150 µM (≈ 57.4 µg/mL) in the experiment with A. baumannii (setting [3]).
